Results reported in ChEMBL document CHEMBL3991601, “The target landscape of clinical kinase drugs” (Science, 2017).
Calls of active or inactive are those of the source. For most assays here, no stated cut-off is given here; in the data, actives have a measured Kd and inactives only a lower limit.

How the values were obtained:
[1] = target: T1, Acyl-CoA dehydrogenase family member 11 (Homo sapiens, UniProt Q709F0)
T1 sequence (Q709F0 whole entry): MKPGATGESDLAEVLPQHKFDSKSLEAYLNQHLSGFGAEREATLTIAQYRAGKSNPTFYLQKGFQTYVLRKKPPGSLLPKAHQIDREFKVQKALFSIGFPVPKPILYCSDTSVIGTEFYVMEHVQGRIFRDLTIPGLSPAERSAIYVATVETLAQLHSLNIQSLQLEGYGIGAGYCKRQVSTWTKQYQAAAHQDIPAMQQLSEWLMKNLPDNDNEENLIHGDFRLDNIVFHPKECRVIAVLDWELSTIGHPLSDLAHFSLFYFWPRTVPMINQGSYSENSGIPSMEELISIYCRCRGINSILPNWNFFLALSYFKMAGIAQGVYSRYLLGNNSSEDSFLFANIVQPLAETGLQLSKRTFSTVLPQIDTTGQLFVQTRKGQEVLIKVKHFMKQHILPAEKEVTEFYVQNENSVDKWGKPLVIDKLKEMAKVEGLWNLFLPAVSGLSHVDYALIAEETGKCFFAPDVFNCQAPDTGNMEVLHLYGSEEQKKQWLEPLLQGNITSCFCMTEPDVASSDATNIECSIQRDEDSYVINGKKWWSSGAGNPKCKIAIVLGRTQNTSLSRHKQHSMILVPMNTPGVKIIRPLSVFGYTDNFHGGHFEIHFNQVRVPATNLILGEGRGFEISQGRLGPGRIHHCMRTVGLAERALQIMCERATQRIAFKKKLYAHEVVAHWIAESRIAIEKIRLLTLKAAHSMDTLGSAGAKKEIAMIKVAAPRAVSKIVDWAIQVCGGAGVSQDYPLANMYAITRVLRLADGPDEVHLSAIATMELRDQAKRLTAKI

[2] = target: Cyclin-dependent kinase 1 (Homo sapiens, UniProt P06493)
Deoxycytidine kinase = Deoxycytidine kinase (Homo sapiens, UniProt P27707)
[3] = target: T2, Phenylalanine--tRNA ligase beta subunit (Homo sapiens, UniProt Q9NSD9)
T2 sequence (Q9NSD9 whole entry): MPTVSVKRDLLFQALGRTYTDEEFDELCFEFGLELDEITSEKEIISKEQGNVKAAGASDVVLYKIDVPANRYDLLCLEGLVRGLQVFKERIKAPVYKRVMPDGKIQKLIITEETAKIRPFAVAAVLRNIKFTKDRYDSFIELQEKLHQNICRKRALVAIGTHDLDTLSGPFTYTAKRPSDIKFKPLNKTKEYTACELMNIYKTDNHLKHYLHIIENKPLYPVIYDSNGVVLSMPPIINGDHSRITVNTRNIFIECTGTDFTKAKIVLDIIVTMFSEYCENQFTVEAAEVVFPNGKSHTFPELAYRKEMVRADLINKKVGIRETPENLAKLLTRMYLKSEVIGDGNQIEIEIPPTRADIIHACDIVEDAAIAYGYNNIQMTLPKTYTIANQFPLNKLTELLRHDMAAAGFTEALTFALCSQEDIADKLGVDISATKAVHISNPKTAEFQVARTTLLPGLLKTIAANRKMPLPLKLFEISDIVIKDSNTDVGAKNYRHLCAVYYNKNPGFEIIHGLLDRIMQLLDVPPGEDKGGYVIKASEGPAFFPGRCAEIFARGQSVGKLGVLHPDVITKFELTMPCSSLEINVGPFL

[4] = target: Tyrosine-protein kinase HCK (Homo sapiens, UniProt P08631)
[5] = target: Insulin-like growth factor 1 receptor (Homo sapiens, UniProt P08069)
[6] = target: T3, Mitogen-activated protein kinase kinase kinase 2 (Homo sapiens, UniProt Q9Y2U5)
T3 sequence (Q9Y2U5 whole entry): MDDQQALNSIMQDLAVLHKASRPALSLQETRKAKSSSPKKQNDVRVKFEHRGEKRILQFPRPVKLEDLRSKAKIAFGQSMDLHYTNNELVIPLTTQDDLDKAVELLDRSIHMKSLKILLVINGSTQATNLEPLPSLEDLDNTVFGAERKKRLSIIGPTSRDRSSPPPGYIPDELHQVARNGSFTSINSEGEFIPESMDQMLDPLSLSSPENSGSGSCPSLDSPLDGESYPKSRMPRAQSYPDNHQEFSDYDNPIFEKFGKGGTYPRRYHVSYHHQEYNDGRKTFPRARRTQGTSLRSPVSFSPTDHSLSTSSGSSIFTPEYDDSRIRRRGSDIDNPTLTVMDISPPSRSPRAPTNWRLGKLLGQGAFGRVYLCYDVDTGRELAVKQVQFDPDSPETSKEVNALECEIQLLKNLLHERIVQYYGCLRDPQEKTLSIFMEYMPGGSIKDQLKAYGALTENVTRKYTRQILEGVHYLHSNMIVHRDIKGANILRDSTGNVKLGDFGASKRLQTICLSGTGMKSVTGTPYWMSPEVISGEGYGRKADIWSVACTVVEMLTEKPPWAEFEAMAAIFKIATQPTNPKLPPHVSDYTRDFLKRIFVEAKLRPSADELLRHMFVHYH

[7] = target: MAP kinase-activated protein kinase 2 (Homo sapiens, UniProt P49137)
[8] = target: Receptor-interacting serine/threonine-protein kinase 3 (Homo sapiens, UniProt Q9Y572)
[9] = target: Tyrosine-protein kinase SYK (Homo sapiens, UniProt P43405)

Chain of Deoxycytidine kinase (P27707 whole entry): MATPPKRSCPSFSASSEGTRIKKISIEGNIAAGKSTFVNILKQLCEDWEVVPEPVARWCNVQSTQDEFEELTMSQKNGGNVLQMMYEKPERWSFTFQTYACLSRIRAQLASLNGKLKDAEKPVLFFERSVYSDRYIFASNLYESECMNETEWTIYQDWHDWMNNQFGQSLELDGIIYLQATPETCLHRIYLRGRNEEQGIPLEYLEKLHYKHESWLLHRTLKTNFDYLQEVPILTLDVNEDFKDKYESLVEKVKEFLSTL
Chain of MAP kinase-activated protein kinase 2 (P49137 whole entry): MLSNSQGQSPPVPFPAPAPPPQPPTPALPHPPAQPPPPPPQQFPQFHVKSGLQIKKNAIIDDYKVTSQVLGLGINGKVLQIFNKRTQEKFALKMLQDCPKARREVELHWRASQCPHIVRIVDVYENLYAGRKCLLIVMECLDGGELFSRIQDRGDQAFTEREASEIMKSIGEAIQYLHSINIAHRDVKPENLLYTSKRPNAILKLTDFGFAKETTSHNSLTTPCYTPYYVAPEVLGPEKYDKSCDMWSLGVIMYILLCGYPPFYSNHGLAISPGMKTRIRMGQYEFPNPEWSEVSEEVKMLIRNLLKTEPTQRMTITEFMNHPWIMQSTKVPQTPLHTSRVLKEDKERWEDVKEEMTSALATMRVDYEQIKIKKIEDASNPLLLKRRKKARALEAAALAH
Chain of Tyrosine-protein kinase HCK (P08631 whole entry): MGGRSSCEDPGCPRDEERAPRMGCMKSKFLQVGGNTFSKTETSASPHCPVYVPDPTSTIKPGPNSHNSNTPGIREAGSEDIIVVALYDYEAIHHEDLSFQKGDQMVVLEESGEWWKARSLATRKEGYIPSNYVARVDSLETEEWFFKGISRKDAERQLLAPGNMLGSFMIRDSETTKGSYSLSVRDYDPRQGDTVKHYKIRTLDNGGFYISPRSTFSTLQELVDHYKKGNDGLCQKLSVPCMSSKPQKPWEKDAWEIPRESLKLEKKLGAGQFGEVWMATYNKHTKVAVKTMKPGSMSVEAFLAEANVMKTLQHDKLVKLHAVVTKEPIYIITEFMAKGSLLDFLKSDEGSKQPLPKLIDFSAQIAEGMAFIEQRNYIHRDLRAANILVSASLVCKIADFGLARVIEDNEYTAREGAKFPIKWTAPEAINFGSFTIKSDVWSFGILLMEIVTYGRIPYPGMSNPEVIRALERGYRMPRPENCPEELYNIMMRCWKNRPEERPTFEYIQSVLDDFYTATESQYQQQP
Chain of Insulin-like growth factor 1 receptor (P08069 31-736 limits assumed): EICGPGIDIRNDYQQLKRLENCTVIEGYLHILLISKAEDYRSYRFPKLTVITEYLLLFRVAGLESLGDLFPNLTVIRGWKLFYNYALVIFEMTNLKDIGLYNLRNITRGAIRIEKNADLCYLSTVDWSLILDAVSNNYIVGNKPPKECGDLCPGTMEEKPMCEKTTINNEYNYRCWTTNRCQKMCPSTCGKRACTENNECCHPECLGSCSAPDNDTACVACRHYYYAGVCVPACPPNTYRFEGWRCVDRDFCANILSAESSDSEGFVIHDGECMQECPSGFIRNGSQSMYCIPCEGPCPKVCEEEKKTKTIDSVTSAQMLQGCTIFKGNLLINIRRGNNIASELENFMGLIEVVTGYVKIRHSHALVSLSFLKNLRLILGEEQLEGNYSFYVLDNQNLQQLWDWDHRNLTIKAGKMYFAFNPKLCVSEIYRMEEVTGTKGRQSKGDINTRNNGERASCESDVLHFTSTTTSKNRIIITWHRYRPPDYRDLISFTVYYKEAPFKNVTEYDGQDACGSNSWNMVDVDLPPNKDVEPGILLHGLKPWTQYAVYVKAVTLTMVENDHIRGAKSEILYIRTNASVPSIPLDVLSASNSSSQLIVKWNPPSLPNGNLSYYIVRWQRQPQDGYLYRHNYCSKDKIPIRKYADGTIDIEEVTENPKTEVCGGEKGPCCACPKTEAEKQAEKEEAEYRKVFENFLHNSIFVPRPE
Chain of Insulin-like growth factor 1 receptor (P08069 741-1367 limits assumed): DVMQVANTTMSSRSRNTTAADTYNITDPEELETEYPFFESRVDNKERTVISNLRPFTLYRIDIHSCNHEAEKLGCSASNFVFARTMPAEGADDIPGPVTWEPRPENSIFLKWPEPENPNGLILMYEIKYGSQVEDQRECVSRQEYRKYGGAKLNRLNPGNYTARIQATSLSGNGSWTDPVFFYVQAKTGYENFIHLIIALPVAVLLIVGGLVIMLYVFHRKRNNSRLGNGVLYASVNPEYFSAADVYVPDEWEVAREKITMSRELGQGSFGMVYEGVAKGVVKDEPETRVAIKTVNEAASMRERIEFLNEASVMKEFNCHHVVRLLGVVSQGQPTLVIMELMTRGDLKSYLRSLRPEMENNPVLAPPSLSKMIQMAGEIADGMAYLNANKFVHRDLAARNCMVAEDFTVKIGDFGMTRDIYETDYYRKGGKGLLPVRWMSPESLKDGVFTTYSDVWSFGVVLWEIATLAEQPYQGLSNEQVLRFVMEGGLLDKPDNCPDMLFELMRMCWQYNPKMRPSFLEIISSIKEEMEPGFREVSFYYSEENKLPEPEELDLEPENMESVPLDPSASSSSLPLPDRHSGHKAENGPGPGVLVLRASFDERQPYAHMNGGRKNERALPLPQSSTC
Chain of Receptor-interacting serine/threonine-protein kinase 3 (Q9Y572 whole entry): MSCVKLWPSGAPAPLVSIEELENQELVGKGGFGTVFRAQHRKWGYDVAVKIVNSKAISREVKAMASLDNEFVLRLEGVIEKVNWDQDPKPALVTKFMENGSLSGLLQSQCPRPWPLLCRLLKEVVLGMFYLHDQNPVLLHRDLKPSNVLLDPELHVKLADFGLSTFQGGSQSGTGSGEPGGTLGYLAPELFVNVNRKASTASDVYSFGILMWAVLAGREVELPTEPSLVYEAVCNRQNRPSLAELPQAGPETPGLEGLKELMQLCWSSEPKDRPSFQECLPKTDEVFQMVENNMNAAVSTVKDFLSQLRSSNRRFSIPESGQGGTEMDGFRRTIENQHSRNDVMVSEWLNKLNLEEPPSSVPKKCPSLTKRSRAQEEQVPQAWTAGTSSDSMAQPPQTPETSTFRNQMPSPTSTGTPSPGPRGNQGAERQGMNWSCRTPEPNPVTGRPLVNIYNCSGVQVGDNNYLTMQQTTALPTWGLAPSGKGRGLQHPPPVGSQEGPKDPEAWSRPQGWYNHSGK
Chain of Cyclin-dependent kinase 1 (P06493 whole entry): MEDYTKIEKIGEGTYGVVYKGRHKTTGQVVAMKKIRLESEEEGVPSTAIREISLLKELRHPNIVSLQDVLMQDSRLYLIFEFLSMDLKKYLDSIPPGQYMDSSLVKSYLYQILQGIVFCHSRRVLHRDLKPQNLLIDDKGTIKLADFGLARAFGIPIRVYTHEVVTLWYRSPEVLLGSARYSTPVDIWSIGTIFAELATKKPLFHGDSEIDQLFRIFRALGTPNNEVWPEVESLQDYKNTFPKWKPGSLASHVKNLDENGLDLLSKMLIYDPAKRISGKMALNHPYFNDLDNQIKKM

SMILES | Kd [1] | Kd [2] | Kd (Deoxycytidine kinase) | Kd [3] | Kd [4] | Kd [5] | Kd [6] | Kd [7] | Kd [8] | Kd [9]
NC[C@@](O)(c1ccc(Cl)cc1)c1ccc(-c2cn[nH]c2)cc1 [AT-13148] | > 30 µM (inactive) | > 30 µM (inactive) | > 30 µM (inactive) | > 30 µM (inactive) | > 30 µM (inactive) | > 30 µM (inactive) | > 30 µM (inactive) | > 30 µM (inactive) | > 30 µM (inactive) | > 30 µM (inactive)
C=CCN(/C=C1/C(=O)O[C@H](COC)[C@@]2(C)C1=C(O)C(=O)C1=C2[C@H](OC(C)=O)C[C@]2(C)C(=O)CC[C@@H]12)CC=C [SONOLISIB] | > 30 µM (inactive) | > 30 µM (inactive) | > 30 µM (inactive) | > 30 µM (inactive) | > 30 µM (inactive) | > 30 µM (inactive) | > 30 µM (inactive) | > 30 µM (inactive) | > 30 µM (inactive) | > 30 µM (inactive)
COc1cc2nccc(Oc3ccc(NC(=O)C4(C(=O)Nc5ccc(F)cc5)CC4)cc3)c2cc1OC [CABOZANTINIB] | > 30 µM (inactive) | > 30 µM (inactive) | > 30 µM (inactive) | > 30 µM (inactive) | 1.1 µM (active) | > 30 µM (inactive) | > 30 µM (inactive) | > 30 µM (inactive) | 2.46 µM (active) | > 30 µM (inactive)
C[C@@H]1COC(Nc2ccc3ncnc(Nc4ccc(OCc5nccs5)c(Cl)c4)c3c2)=N1 [VARLITINIB] | > 30 µM (inactive) | > 30 µM (inactive) | > 30 µM (inactive) | > 30 µM (inactive) | > 30 µM (inactive) | > 30 µM (inactive) | > 30 µM (inactive) | > 30 µM (inactive) | 0.088 µM (active) | > 30 µM (inactive)
Cc1c(NC(=O)OC[C@@H]2COCCN2)cn2ncnc(Nc3ccc4c(cnn4Cc4cccc(F)c4)c3)c12 [AC-480] | > 30 µM (inactive) | > 30 µM (inactive) | > 30 µM (inactive) | > 30 µM (inactive) | > 30 µM (inactive) | > 30 µM (inactive) | > 30 µM (inactive) | > 30 µM (inactive) | > 30 µM (inactive) | > 30 µM (inactive)
COc1ccc(-c2ccc3ncc4c(c3c2)n(-c2ccc(N3CCNCC3)c(C(F)(F)F)c2)c(=O)n4C)cn1 [BGT-226 FREE BASE] | > 30 µM (inactive) | > 30 µM (inactive) | > 30 µM (inactive) | > 30 µM (inactive) | > 30 µM (inactive) | > 30 µM (inactive) | > 30 µM (inactive) | > 30 µM (inactive) | > 30 µM (inactive) | > 30 µM (inactive)
Cc1cc(Nc2nc(N[C@@H](C)c3ncc(F)cn3)ncc2Cl)n[nH]1 [AZD-1480] | > 30 µM (inactive) | > 30 µM (inactive) | > 30 µM (inactive) | > 30 µM (inactive) | > 30 µM (inactive) | > 30 µM (inactive) | > 30 µM (inactive) | > 30 µM (inactive) | > 30 µM (inactive) | > 30 µM (inactive)
CCc1cc2c(cc1N1CCC(N3CCOCC3)CC1)C(C)(C)c1[nH]c3cc(C#N)ccc3c1C2=O [ALECTINIB] | > 30 µM (inactive) | > 30 µM (inactive) | > 30 µM (inactive) | > 30 µM (inactive) | > 30 µM (inactive) | > 30 µM (inactive) | > 30 µM (inactive) | > 30 µM (inactive) | > 30 µM (inactive) | > 30 µM (inactive)
FC(F)(F)c1ccc(CNc2ccc(Cc3c[nH]c4ncc(Cl)cc34)cn2)cn1 [PEXIDARTINIB] | > 30 µM (inactive) | > 30 µM (inactive) | > 30 µM (inactive) | > 30 µM (inactive) | > 30 µM (inactive) | > 30 µM (inactive) | > 30 µM (inactive) | > 30 µM (inactive) | > 30 µM (inactive) | > 30 µM (inactive)
